Test results as given in the supplement of paper PMC4862054.
Each block holds one compound with its values, some of them ahead of it.

Assays:
BT-549 [1] = conditions: 72 h
Outline: (§1)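 Seeding of breast cancer cell lines (20 µl suspension) was done into 384-well plates pre-loaded with compound at 5 concentrations, 10-fold apart, covering a compound-specific 10,000-fold range. The plates were incubated for 72 h, read for CellTox Green fluorescence (485/520 nm), and then read for CellTiter-Glo luminescence after 10 min at room temperature. Every plate was normalised to 0.1 % DMSO and a positive kill control. Curve fitting gave the EC50, censored at the top concentration.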

SK-BR-3 = conditions: 72 h
Outline: as §1

MDA-MB-436 [2] = conditions: 72 h
Outline: as §1

MFM-223 [3] = conditions: 72 h
Outline: as §1

BT-474 [4] = conditions: 72 h
Outline: as §1

MCF-10A [5] = conditions: 72 h
Outline: as §1

CAL-51 [6] = conditions: 72 h
Outline: as §1

Hs578T [7] = conditions: 72 h
Outline: as §1

MDA-MB-231 [8] = conditions: 72 h
Outline: as §1

MDA-MB-468 [9] = conditions: 72 h
Outline: as §1

HCC1143 [10] = conditions: 72 h
Outline: as §1

DU-4475 [11] = conditions: 72 h
Outline: as §1

CAL-120 [12] = conditions: 72 h
Outline: as §1

HDQ-P1 [13] = test: normalised viability (% of control), CellTiter-Blue; higher = more viable cells (about 100 = DMSO control); conditions: incubation time: 72 h
Method: (§2)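 DSRT, CellTiter-Blue viability, 72 h incubation. Signal is normalised to DMSO and benzethonium chloride controls. Value is the normalised response at dose 7.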

CAL-51 [14] = test: as above; conditions: incubation time: 72 h
Method: as §2

MDA-MB-453 [15] = test: as above; conditions: incubation time: 72 h
Method: as §2

CAL-148 = test: as above; conditions: incubation time: 72 h
Method: as §2

CAL-85-1 [16] = test: as above; conditions: incubation time: 72 h
Method: as §2

DU-4475 [17] = test: as above; conditions: incubation time: 72 h
Method: as §2

BT-549 [18] = test: normalised response (% of control), CellTiter-Glo; higher = more viable cells (100 = DMSO, 0 = benzethonium chloride kill control); conditions: incubation time: 72 h
Outline: (§3)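 After 72 h with compound in 384-well plates, breast cancer cell lines seeded as 20 µl suspension were read for CellTox Green fluorescence at 485/520 nm. CellTiter-Glo luminescence was then read after 10 min at room temperature. Compound was present at 5 concentrations in 10-fold steps over a 10,000-fold range set per compound, and plates were normalised to 0.1 % DMSO (100) and a positive kill control (0). Values are normalised signals, each at a single concentration.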

HDQ-P1 [19] = test: as above; conditions: incubation time: 72 h
Outline: as §3

MDA-MB-436 [20] = test: as above; conditions: incubation time: 72 h
Outline: as §3

MFM-223 [21] = test: as above; conditions: incubation time: 72 h
Outline: as §3

BT-474 [22] = test: as above; conditions: incubation time: 72 h
Outline: as §3

MCF-10A [23] = test: as above; conditions: incubation time: 72 h
Outline: as §3

CAL-51 [24] = test: as above; conditions: incubation time: 72 h
Outline: as §3

MDA-MB-453 [25] = test: as above; conditions: incubation time: 72 h
Outline: as §3

HCC1599 = test: as above; conditions: incubation time: 72 h
Outline: as §3

Hs578T [26] = test: as above; conditions: incubation time: 72 h
Outline: as §3

MDA-MB-231 [27] = test: as above; conditions: incubation time: 72 h
Outline: as §3

MDA-MB-468 [28] = test: as above; conditions: incubation time: 72 h
Outline: as §3

CAL-85-1 [29] = test: as above; conditions: incubation time: 72 h
Outline: as §3

HCC1143 [30] = test: as above; conditions: incubation time: 72 h
Outline: as §3

CAL-120 [31] = test: as above; conditions: incubation time: 72 h
Outline: as §3

EC50, CellTiter-Glo (BT-549 [1]): 186 nM | EC50, CellTiter-Glo (SK-BR-3): 23.8 nM | EC50, CellTiter-Glo (MDA-MB-436 [2]): 181 nM | EC50, CellTiter-Glo (BT-474 [4]): 162 nM | EC50, CellTiter-Glo (MDA-MB-231 [8]): 189 nM | EC50, CellTiter-Glo (MDA-MB-468 [9]): 208 nM | EC50, CellTiter-Glo (HCC1143 [10]): 258 nM
Structure (SMILES): COc1ccc(-c2cc3c(C)nc(N)nc3n([C@H]3CC[C@H](OCCO)CC3)c2=O)cn1
EC50, CellTiter-Glo (MFM-223 [3]): 261 nM | EC50, CellTiter-Glo (MCF-10A [5]): 122 nM | EC50, CellTiter-Glo (CAL-51 [6]): 105 nM | EC50, CellTiter-Glo (Hs578T [7]): 238 nM | EC50, CellTiter-Glo (DU-4475 [11]): 756 nM | EC50, CellTiter-Glo (CAL-120 [12]): 123 nM

EC50, CellTiter-Glo (BT-549 [1]): 53.6 nM | EC50, CellTiter-Glo (MDA-MB-436 [2]): > 10000 nM | EC50, CellTiter-Glo (MDA-MB-468 [9]): 534 nM
Structure (SMILES): Cc1c(Cn2c(C)nc3c(C(=O)O)cc(N4CCOCC4)cc32)cccc1C(F)(F)F
EC50, CellTiter-Glo (CAL-51 [6]): 8.16 nM

EC50, CellTiter-Glo (BT-549 [1]): 1900 nM | EC50, CellTiter-Glo (SK-BR-3): 5720 nM | EC50, CellTiter-Glo (MDA-MB-436 [2]): 7820 nM | EC50, CellTiter-Glo (MDA-MB-231 [8]): 3300 nM | EC50, CellTiter-Glo (MDA-MB-468 [9]): 3660 nM
Structure (SMILES): CC/C(=C(\c1ccc(O)cc1)c1ccc(OCCN(C)C)cc1)c1ccccc1 [4-hydroxytamoxifen]
EC50, CellTiter-Glo (MFM-223 [3]): 8810 nM | EC50, CellTiter-Glo (CAL-120 [12]): 3010 nM

EC50, CellTiter-Glo (BT-549 [1]): 406 nM | EC50, CellTiter-Glo (SK-BR-3): 933 nM | EC50, CellTiter-Glo (BT-474 [4]): 74.7 nM | EC50, CellTiter-Glo (MDA-MB-231 [8]): 125 nM | EC50, CellTiter-Glo (MDA-MB-468 [9]): 28.4 nM | EC50, CellTiter-Glo (HCC1143 [10]): 121 nM
Structure (SMILES): O=C(Nc1c[nH]nc1-c1nc2ccc(CN3CCOCC3)cc2[nH]1)NC1CC1 [AT9283]
EC50, CellTiter-Glo (MFM-223 [3]): 191 nM | EC50, CellTiter-Glo (MCF-10A [5]): 102 nM | EC50, CellTiter-Glo (CAL-51 [6]): 2.81 nM | EC50, CellTiter-Glo (Hs578T [7]): 157 nM | EC50, CellTiter-Glo (DU-4475 [11]): 149 nM | EC50, CellTiter-Glo (CAL-120 [12]): 146 nM

Structure (SMILES): O=C(Nc1c[nH]nc1-c1nc2ccc(CN3CCOCC3)cc2[nH]1)NC1CC1 [AT9283] (1000 nM)
normalised viability (HDQ-P1 [13]): 50.3% | normalised viability (CAL-51 [14]): 51.3% | normalised viability (MDA-MB-453 [15]): 42% | normalised viability (CAL-148): 67.3% | normalised viability (CAL-85-1 [16]): 55.4% | normalised viability (DU-4475 [17]): 10.3% | normalised response (BT-549 [18]): 27.8% | normalised response (HDQ-P1 [19]): 50.8% | normalised response (MDA-MB-436 [20]): 99.5% | normalised response (MFM-223 [21]): 75.5% | normalised response (BT-474 [22]): 58.6% | normalised response (MCF-10A [23]): 46.2% | normalised response (CAL-51 [24]): 83% | normalised response (MDA-MB-453 [25]): 185% | normalised response (HCC1599): 74.4% | normalised response (Hs578T [26]): 54.8% | normalised response (MDA-MB-231 [27]): 42.4% | normalised response (MDA-MB-468 [28]): 31.1% | normalised response (CAL-85-1 [29]): 59.6% | normalised response (HCC1143 [30]): 60.8% | normalised response (CAL-120 [31]): 46.9%

EC50, CellTiter-Glo (BT-549 [1]): > 1000 nM
Structure (SMILES): COc1cc(CCc2cc(NC(=O)c3ccc(N4CC(C)NC(C)C4)cc3)n[nH]2)cc(OC)c1 (configuration not stated) [AZD4547]
EC50, CellTiter-Glo (MFM-223 [3]): 5.91 nM | EC50, CellTiter-Glo (MCF-10A [5]): 91.2 nM | EC50, CellTiter-Glo (CAL-120 [12]): 68.8 nM

EC50, CellTiter-Glo (BT-549 [1]): 386 nM | EC50, CellTiter-Glo (SK-BR-3): 1730 nM | EC50, CellTiter-Glo (MDA-MB-436 [2]): 560 nM | EC50, CellTiter-Glo (BT-474 [4]): 2390 nM | EC50, CellTiter-Glo (MDA-MB-231 [8]): 1010 nM | EC50, CellTiter-Glo (MDA-MB-468 [9]): 140 nM | EC50, CellTiter-Glo (HCC1143 [10]): 559 nM
Structure (SMILES): CC(=O)OC[C@H]1O[C@@H]([S-])[C@H](OC(C)=O)[C@@H](OC(C)=O)[C@@H]1OC(C)=O.CCP(CC)CC.[Au+] [Auranofin]
EC50, CellTiter-Glo (MFM-223 [3]): 1460 nM | EC50, CellTiter-Glo (MCF-10A [5]): 1630 nM | EC50, CellTiter-Glo (CAL-51 [6]): 199 nM | EC50, CellTiter-Glo (Hs578T [7]): 1020 nM | EC50, CellTiter-Glo (DU-4475 [11]): 1870 nM | EC50, CellTiter-Glo (CAL-120 [12]): 2490 nM

Structure (SMILES): CCC/C=C/C=C/C(=O)O[C@H]1/C(=C/C(=O)OC)C[C@H]2C[C@H]([C@@H](C)O)OC(=O)C[C@H](O)C[C@@H]3C[C@H](OC(C)=O)C(C)(C)[C@](O)(C[C@@H]4C/C(=C/C(=O)OC)C[C@H](/C=C/C(C)(C)[C@]1(O)O2)O4)O3 [Bryostatin 1]
EC50, CellTiter-Glo (BT-549 [1]): > 100 nM | EC50, CellTiter-Glo (SK-BR-3): 0.1 nM | EC50, CellTiter-Glo (CAL-51 [6]): 0.32 nM | EC50, CellTiter-Glo (Hs578T [7]): 1.41 nM

EC50, CellTiter-Glo (BT-549 [1]): 882 nM | EC50, CellTiter-Glo (MDA-MB-436 [2]): 1090 nM | EC50, CellTiter-Glo (BT-474 [4]): 912 nM | EC50, CellTiter-Glo (MDA-MB-231 [8]): 2480 nM | EC50, CellTiter-Glo (MDA-MB-468 [9]): 25.2 nM | EC50, CellTiter-Glo (HCC1143 [10]): 8380 nM
Structure (SMILES): CO[C@@H](C(=O)N1Cc2[nH]nc(NC(=O)c3ccc(N4CCN(C)CC4)cc3)c2C1)c1ccccc1 [Danusertib]
EC50, CellTiter-Glo (MFM-223 [3]): 86.5 nM | EC50, CellTiter-Glo (MCF-10A [5]): 628 nM | EC50, CellTiter-Glo (CAL-51 [6]): 780 nM | EC50, CellTiter-Glo (Hs578T [7]): 4060 nM | EC50, CellTiter-Glo (DU-4475 [11]): 1530 nM | EC50, CellTiter-Glo (CAL-120 [12]): 2860 nM

EC50, CellTiter-Glo (BT-549 [1]): 40.6 nM | EC50, CellTiter-Glo (BT-474 [4]): 14 nM | EC50, CellTiter-Glo (MDA-MB-231 [8]): 16.4 nM | EC50, CellTiter-Glo (MDA-MB-468 [9]): 28.5 nM | EC50, CellTiter-Glo (HCC1143 [10]): 29.5 nM
Structure (SMILES): Cc1nc(Nc2ncc(C(=O)Nc3c(C)cccc3Cl)s2)cc(N2CCN(CCO)CC2)n1 [Dasatinib]
EC50, CellTiter-Glo (MCF-10A [5]): 16.4 nM | EC50, CellTiter-Glo (CAL-51 [6]): 12.7 nM | EC50, CellTiter-Glo (Hs578T [7]): 88.7 nM | EC50, CellTiter-Glo (CAL-120 [12]): 36.6 nM

EC50, CellTiter-Glo (BT-549 [1]): 24400 nM
Structure (SMILES): O=S(=O)(c1cccc2cnccc12)N1CCCNCC1 [Fasudil]
EC50, CellTiter-Glo (Hs578T [7]): > 50000 nM | EC50, CellTiter-Glo (DU-4475 [11]): > 50000 nM
